In ChEMBL document CHEMBL1153119, “Design and synthesis of orally-active and selective azaindane 5HT2c agonist for the treatment of obesity” (Bioorg Med Chem Lett, 2010):
Activity calls are given as the source filed them. No cut-off for these calls is given here.

What was measured:
[1] = biological target: T1, 5-hydroxytryptamine receptor 2C (Homo sapiens, UniProt P28335); experiment: Agonist activity against human 5HT2C receptor by FLIPR assay; assay type: functional
T1 sequence (P28335 whole entry): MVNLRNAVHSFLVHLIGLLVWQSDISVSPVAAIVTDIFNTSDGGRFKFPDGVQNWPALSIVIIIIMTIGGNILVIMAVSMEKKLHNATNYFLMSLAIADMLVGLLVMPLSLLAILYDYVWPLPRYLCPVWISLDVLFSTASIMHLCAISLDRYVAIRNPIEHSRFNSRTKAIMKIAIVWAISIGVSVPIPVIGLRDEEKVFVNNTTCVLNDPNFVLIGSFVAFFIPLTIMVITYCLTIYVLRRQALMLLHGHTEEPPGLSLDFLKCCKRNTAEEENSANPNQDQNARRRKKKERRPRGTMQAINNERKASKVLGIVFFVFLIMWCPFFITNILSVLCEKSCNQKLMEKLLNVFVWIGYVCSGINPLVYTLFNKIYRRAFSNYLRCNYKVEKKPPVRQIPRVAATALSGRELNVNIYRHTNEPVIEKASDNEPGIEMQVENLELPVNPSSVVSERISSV

[2] = biological target: T2, 5-hydroxytryptamine receptor 2C (Homo sapiens) (UniProt P28335); experiment: Agonist activity against human 5HT2C receptor by FLIPR assay
T2 sequence (whole entry): T1 sequence (P28335 whole entry)

[3] = biological target: T1, 5-hydroxytryptamine receptor 2C; experiment: Displacement of [3H]5HT from human 5HT2C receptor expressed in mouse 3T3 cells by scintillation counting; assay type: cell-based, NIH3T3
[4] = biological target: T3, 5-hydroxytryptamine receptor 2A (Homo sapiens, UniProt P28223); experiment: Agonist activity against human 5HT2A receptor by FLIPR assay; assay type: functional
[5] = biological target: T3, 5-hydroxytryptamine receptor 2A; experiment: Agonist activity against human 5HT2A receptor by FLIPR assay relative to 5HT; assay type: functional
[6] = biological target: T4, 5-hydroxytryptamine receptor 2B (Homo sapiens, UniProt P41595); experiment: Agonist activity against human 5HT2B receptor by FLIPR assay; assay type: functional
[7] = biological target: T4, 5-hydroxytryptamine receptor 2B; experiment: Agonist activity against human 5HT2B receptor by FLIPR assay relative to 5HT; assay type: functional
[8] = biological target: 5-hydroxytryptamine receptor 2A (Rattus norvegicus, UniProt P14842); experiment: Displacement of [125I]DOI from rat 5HT2A receptor expressed in mouse 3T3 cells; assay type: cell-based, NIH3T3
[9] = biological target: T4, 5-hydroxytryptamine receptor 2B; experiment: Displacement of [125I]DOI from human 5HT2B receptor expressed in CHO cells; assay type: cell-based
[10] = biological target: T1, 5-hydroxytryptamine receptor 2C; experiment: Antagonist activity against human 5HT2C receptor by FLIPR assay; assay type: functional
[11] = biological target: T1, 5-hydroxytryptamine receptor 2C; experiment: Agonist activity against human 5HT2C receptor by GTPgammaS binding; assay type: functional
[12] = biological target: T2, 5-hydroxytryptamine receptor 2C (Homo sapiens); experiment: Agonist activity against human 5HT2C receptor by GTPgammaS binding relative to control; assay type: functional
[13] = biological target: T2, 5-hydroxytryptamine receptor 2C (Homo sapiens); experiment: Agonist activity against human 5HT2C receptor assessed as inositol phosphate accumulation; assay type: functional
[14] = biological target: T3, 5-hydroxytryptamine receptor 2A; experiment: Agonist activity against 5HT2A receptor assessed as inositol phosphate accumulation; assay type: functional
[15] = biological target: T4, 5-hydroxytryptamine receptor 2B; experiment: Agonist activity against 5HT2B receptor assessed as inositol phosphate accumulation; assay type: functional
[16] = biological target: T3, 5-hydroxytryptamine receptor 2A; experiment: Antagonist activity against 5HT2A receptor; assay type: functional
[17] = biological target: T4, 5-hydroxytryptamine receptor 2B; experiment: Antagonist activity against 5HT2B receptor; assay type: functional
[18] = biological target: Voltage-gated inwardly rectifying potassium channel KCNH2 (Homo sapiens, UniProt Q12809); experiment: Inhibition of human ERG channel
Rattus norvegicus = experiment: Antiobesity activity in Sprague-Dawley rat model assessed as reduction in food intake at 100 mg/kg, po after 2 hrs; assay type: functional; design: scale not given: the % may be the effect or the level left
[19] = Half life in rat microsomes at 0.3 mM; assay type: ADME, Microsome
[20] = Intrinsic clearance in rat microsomes at 0.3 mM; assay type: ADME, Microsome
[21] = Half life in rat hepatocyte at 1 mM; assay type: ADME, cell-based, Liver; details: hepatocytes
[22] = Intrinsic clearance in rat hepatocyte at 1 mM; assay type: ADME, cell-based, Liver; details: hepatocytes
[23] = Clearance in rat; assay type: ADME, organism-based; details: in vivo
[24] = Half life in dog microsomes at 0.3 mM; assay type: ADME, Canis lupus familiaris, Microsome
[25] = Intrinsic clearance in dog microsomes at 0.3 mM; assay type: ADME, Canis lupus familiaris, Liver, Microsome
[26] = Half life in dog hepatocyte at 1 mM; assay type: ADME, Canis lupus familiaris, Liver; details: hepatocytes
[27] = Intrinsic clearance in dog hepatocyte at 1 mM; assay type: ADME, tissue-based, Canis lupus familiaris, Liver; details: hepatocytes
[28] = Clearance in dog; assay type: ADME, organism-based, Canis lupus familiaris; details: in vivo
[29] = Half life in monkey microsomes at 0.3 mM; assay type: ADME, Macaca mulatta, Microsome; details: rhesus monkey
[30] = Intrinsic clearance in monkey microsomes at 0.3 mM; assay type: ADME, Macaca mulatta, Microsome; details: rhesus monkey
[31] = Half life in monkey hepatocyte at 1 mM; assay type: ADME, Macaca mulatta, Liver; details: rhesus monkey, hepatocytes
[32] = Intrinsic clearance in monkey hepatocyte at 1 mM; assay type: ADME, tissue-based, Macaca mulatta, Liver; details: rhesus monkey, hepatocytes
[33] = Clearance in monkey; assay type: ADME, organism-based, Macaca mulatta; details: rhesus monkey, in vivo
[34] = Half life in human microsomes at 0.3 mM; assay type: ADME, Microsome
[35] = Intrinsic clearance in human microsomes at 0.3 mM; assay type: ADME, Microsome
[36] = Half life in human hepatocyte at 1 mM; assay type: ADME, cell-based, Liver; details: hepatocytes
[37] = Intrinsic clearance in human hepatocyte at 1 mM; assay type: ADME, cell-based, Liver; details: hepatocytes
[38] = Ratio of drug uptake in brain to plasma in rat; assay type: ADME, organism-based; details: in vivo
[39] = Ratio of drug uptake in CSF to plasma in rat; assay type: ADME
[40] = Ratio of drug uptake in CSF to free plasma in rat; assay type: ADME, organism-based; details: in vivo
[41] = biological target: T2, 5-hydroxytryptamine receptor 2C (Homo sapiens); experiment: Antagonist activity against 5HT2c receptor; assay type: functional

T3 sequence (P28223 whole entry): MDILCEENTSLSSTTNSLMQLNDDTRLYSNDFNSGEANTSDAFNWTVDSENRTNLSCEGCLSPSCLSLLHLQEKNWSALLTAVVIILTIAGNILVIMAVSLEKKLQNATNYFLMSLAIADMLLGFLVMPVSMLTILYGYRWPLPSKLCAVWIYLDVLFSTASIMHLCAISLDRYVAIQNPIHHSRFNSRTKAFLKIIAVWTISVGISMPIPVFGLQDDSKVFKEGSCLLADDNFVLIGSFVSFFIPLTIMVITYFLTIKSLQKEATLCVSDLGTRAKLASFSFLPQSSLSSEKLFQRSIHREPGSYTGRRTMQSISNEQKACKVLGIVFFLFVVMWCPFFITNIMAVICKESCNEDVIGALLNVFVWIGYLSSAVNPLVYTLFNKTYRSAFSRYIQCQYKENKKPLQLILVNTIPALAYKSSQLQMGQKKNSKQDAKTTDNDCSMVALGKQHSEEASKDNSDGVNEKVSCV
Chain of 5-hydroxytryptamine receptor 2A (Rattus norvegicus, UniProt P14842) (P14842 whole entry): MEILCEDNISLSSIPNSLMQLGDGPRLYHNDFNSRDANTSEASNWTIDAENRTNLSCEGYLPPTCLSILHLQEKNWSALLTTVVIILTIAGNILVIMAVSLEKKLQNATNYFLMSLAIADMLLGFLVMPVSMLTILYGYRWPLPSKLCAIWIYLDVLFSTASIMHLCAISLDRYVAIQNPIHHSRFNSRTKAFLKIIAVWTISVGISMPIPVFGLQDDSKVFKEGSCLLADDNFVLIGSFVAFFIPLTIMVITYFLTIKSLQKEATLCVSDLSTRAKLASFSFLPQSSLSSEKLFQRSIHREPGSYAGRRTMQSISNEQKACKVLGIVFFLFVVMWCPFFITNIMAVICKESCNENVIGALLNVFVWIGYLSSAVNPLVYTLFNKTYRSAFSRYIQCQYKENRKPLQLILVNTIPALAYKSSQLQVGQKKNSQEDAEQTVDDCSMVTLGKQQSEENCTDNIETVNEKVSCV
T4 sequence (P41595 whole entry): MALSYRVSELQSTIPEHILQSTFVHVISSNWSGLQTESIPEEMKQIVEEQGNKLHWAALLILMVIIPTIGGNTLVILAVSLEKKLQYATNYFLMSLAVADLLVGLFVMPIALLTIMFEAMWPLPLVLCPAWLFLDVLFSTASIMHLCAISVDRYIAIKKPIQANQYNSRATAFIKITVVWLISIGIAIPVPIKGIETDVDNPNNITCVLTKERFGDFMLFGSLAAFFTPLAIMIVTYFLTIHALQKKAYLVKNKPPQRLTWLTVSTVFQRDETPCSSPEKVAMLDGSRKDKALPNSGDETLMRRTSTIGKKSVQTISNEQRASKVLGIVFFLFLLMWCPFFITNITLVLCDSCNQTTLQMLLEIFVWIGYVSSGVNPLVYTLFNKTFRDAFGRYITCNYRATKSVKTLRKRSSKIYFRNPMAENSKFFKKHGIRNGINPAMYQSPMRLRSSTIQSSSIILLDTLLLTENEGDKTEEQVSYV
Chain of Voltage-gated inwardly rectifying potassium channel KCNH2 (Q12809 whole entry): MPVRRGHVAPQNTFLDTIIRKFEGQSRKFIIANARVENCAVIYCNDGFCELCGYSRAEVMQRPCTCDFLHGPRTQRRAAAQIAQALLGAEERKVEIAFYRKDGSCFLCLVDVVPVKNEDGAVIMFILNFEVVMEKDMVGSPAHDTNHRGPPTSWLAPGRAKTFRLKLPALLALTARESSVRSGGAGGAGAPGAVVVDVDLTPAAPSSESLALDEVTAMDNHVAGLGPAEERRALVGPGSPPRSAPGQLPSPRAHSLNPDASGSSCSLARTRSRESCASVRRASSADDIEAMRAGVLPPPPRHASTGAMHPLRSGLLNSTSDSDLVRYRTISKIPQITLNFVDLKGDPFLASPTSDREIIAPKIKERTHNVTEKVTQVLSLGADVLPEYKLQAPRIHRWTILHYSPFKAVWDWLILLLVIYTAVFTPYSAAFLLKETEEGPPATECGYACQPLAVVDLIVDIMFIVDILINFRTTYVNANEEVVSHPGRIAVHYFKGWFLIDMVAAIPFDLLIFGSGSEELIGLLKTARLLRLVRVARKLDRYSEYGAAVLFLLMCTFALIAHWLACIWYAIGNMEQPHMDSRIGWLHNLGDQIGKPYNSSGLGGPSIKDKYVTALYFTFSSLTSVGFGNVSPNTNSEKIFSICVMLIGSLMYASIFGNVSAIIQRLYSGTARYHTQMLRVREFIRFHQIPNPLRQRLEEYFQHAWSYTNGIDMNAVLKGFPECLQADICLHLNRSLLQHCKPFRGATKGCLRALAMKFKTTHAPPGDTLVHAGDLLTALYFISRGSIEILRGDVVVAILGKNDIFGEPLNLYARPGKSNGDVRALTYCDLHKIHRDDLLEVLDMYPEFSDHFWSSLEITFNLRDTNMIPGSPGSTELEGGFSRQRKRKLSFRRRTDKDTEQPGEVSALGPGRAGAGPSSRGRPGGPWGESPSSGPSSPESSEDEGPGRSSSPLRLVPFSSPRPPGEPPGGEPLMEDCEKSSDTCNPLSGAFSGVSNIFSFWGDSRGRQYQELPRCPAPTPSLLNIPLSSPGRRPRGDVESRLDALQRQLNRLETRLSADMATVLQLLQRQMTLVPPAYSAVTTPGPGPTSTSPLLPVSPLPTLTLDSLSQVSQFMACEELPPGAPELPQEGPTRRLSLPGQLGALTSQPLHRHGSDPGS

## Clc1cccc(COc2nc(N3CCNCC3)nc3sccc23)c1
[1]
  EC50: 1200 nM
[2]
  Activity: 53%

## Fc1cccc(O[C@H]2CCc3ccc(N4CCNCC4)nc32)c1
[3]
  Ki: 3 nM

## Clc1nc(N2CCNCC2)nc2sccc12
[1]
  EC50: 616 nM
[2]
  Activity: 69%

## Clc1ccccc1O[C@@H]1CCc2ccc(N3CCNCC3)nc21
[1]
  EC50: 22 nM
[4]
  EC50: 1310 nM
[5]
  Activity: 46%
[6]
  EC50: 748 nM
[7]
  Activity: 21%
[8]
  Ki: 41 nM
[9]; cho
  Ki: Not Active
[2]
  Activity: 97%

## Fc1ccc(F)c(CO[C@H]2CCc3ccc(N4CCNCC4)nc32)c1
[1]
  EC50: 1.4 nM
[4]
  EC50: 1500 nM
[5]
  Activity: 13%
[6]
  EC50: 2700 nM
[7]
  Activity: 18%
[8]
  Ki: 15 nM
[9]; read-out: Ki
  Ki: 153 nM
[2]
  Activity: 91%

## Cn1cnc2nc(OCc3ccccc3)nc(N3CCNCC3)c21
[10]
  IC50: > 500 nM

## c1ccc2c(N3CCNCC3)nccc2c1
[10]
  IC50: 24 nM

## COc1nc(N2CCNCC2)nc2c1CCCC2
[1]
  EC50: 5000 nM
[2]
  Activity: 53%

## Clc1cccc(COc2nc(N3CCNCC3)nc3ccsc23)c1
[1]
  EC50: 2600 nM
[2]
  Activity: 43%

## C[C@@H]1CNCCN1c1ccc2c(n1)[C@@H](OCc1cc(F)ccc1F)CC2
[1]
  EC50: 1 nM
[4]
  EC50: 1430 nM
[5]
  Activity: 18%
[8]
  Ki: 16 nM
[9]; read-out: Ki
  Ki: 83 nM
[2]
  Activity: 96%

## CCCn1cnc2c(N3CCNCC3)ncnc21
[1]
  EC50: 1250 nM
[2]
  Activity: 55%

## Clc1cccc(COc2nc(N3CCNCC3)nc3nc[nH]c23)c1
[10]
  IC50: 410 nM

## c1cc2sccc2c(N2CCNCC2)n1
[1]
  EC50: 187 nM
[2]
  Activity: 60%

## Clc1ccccc1O[C@@H]1CCCc2ccc(N3CCNCC3)nc21
[1]
  EC50: 120 nM
[4]
  EC50: 578 nM
[5]
  Activity: 76%
[6]
  EC50: 998 nM
[8]
  Ki: 2 nM
[9]; cho
  Ki: Not Active
[2]
  Activity: 95%

## c1cc2occc2c(N2CCNCC2)n1
[1]
  EC50: 164 nM
[2]
  Activity: 67%

## Clc1ccccc1O[C@H]1CCCc2ccc(N3CCNCC3)nc21
[1]
  EC50: 10 nM
[4]
  EC50: 70 nM
[5]
  Activity: 93%
[6]
  EC50: 397 nM
[8]
  Ki: 0.7 nM
[9]; cho
  Ki: Not Active
[2]
  Activity: 97%

## c1ccc2c(c1)sc1c(N3CCNCC3)ncnc12
[2]
  Activity: 31%

## c1cc2c(nc1N1CCNCC1)CCCC2
[1]
  EC50: 25 nM
[4]
  EC50: 2200 nM
[5]
  Activity: 60%
[7]
  Activity: Active
[8]
  Ki: 21 nM
[9]; cho
  Ki: Not Active
[2]
  Activity: 93%

## Cc1ccc(F)cc1CO[C@H]1CCc2ccc(N3CCNC[C@H]3C)nc21
[1]
  EC50: 3.4 nM
[10]
  IC50: ≤ 86 nM
[11]
  EC50: 1.9 nM
[4]
  EC50: 630 nM
[6]
  EC50: 566 nM
[7]
  Emax: 28%
[8]
  Ki: 4.4 nM
[12]
  Activity: 86%
[13]
  Activity: inactive
[14]
  Activity: inactive
[15]
  EC50: > 10000 nM
[16]
  Kb: 62 nM
[17]
  Kb: 4 nM
[18]
  IC50: 3900 nM
Rattus norvegicus
  Activity: -74%
[19]
  half-life: 2.2 min
[20]
  CLint scaled: 1500 mL/min/kg
[21]
  half-life: 4.7 min
[22]
  CLint scaled: 400 mL/min/kg
[23]
  clearance: 90 mL/min/kg
[24]
  half-life: 24 min
[25]
  CLint scaled: 59 mL/min/kg
[26]
  half-life: 64 min
[27]
  CLint scaled: 41 mL/min/kg
[28]
  clearance: 34 mL/min/kg
[29]
  half-life: 12 min
[30]
  CLint scaled: 350 mL/min/kg
[31]
  half-life: 53 min
[32]
  CLint scaled: 43 mL/min/kg
[33]
  clearance: 8.6 mL/min/kg
[34]
  half-life: 44 min
[35]
  CLint scaled: 20 mL/min/kg
[36]
  half-life: 170 min
[37]
  CLint scaled: 5.1 mL/min/kg
[38]
  ratio: 3.4
[39]
  Kp: 0.015
[40]
  ratio: 0.5
[41]
  Kb: inactive

## Cc1csc2c(OCc3cccc(Cl)c3)nc(N3CCNCC3)nc12
[10]
  IC50: 126 nM

## Clc1nc(N2CCNCC2)c2scc(-c3ccccc3)c2n1
[10]
  IC50: 540 nM

## Clc1nc(N2CCNCC2)c2c3c(sc2n1)CCCC3
[10]
  IC50: 710 nM

## Cc1cc2c(N3CCNCC3)ncnc2o1
[1]
  EC50: 660 nM
[2]
  Activity: 45%

## Brc1cn2ccnc2c(N2CCNCC2)n1
[1]
  EC50: 1360 nM
[2]
  Activity: 79%

## C[C@@H]1CNCCN1c1ccc2c(n1)[C@@H](Oc1ccccc1Cl)CC2
[3]
  Ki: 0.6 nM

## Clc1ccccc1O[C@H]1CCc2ccc(N3CCNCC3)nc21
[1]
  EC50: 0.1 nM
[4]
  EC50: 87 nM
[5]
  Activity: 87%
[6]
  EC50: 300 nM
[7]
  Activity: 58%
[8]
  Ki: 1 nM
[9]; cho
  Ki: Not Active
[2]
  Activity: 92%

## c1nc(N2CCNCC2)c2cc[nH]c2n1
[1]
  EC50: 755 nM
[2]
  Activity: 91%

## c1nc(N2CCNCC2)c2sccc2n1
[1]
  EC50: 400 nM
[2]
  Activity: 81%

## c1nc(N2CCNCC2)c2ccsc2n1
[1]
  EC50: 530 nM
[2]
  Activity: 74%

## Clc1ccccc1OC1CCc2ccc(N3CCNCC3)nc21 (stereo not given)
[1]
  EC50: 0.1 nM
[4]
  EC50: 236 nM
[5]
  Activity: 75%
[6]
  EC50: 187 nM
[7]
  Activity: 50%
[8]
  Ki: 3.8 nM
[9]; cho
  Ki: Not Active
[2]
  Activity: 93%
